The text below walks through data of ChEMBL document CHEMBL5465560, “Selectivity Literature for EUbOPEN Chemogenomic Library” (2024).

The target of assay [1] is T1, Serine/threonine-protein kinase TAO2 (Homo sapiens) (UniProt Q9UL54).
T1 sequence (whole entry): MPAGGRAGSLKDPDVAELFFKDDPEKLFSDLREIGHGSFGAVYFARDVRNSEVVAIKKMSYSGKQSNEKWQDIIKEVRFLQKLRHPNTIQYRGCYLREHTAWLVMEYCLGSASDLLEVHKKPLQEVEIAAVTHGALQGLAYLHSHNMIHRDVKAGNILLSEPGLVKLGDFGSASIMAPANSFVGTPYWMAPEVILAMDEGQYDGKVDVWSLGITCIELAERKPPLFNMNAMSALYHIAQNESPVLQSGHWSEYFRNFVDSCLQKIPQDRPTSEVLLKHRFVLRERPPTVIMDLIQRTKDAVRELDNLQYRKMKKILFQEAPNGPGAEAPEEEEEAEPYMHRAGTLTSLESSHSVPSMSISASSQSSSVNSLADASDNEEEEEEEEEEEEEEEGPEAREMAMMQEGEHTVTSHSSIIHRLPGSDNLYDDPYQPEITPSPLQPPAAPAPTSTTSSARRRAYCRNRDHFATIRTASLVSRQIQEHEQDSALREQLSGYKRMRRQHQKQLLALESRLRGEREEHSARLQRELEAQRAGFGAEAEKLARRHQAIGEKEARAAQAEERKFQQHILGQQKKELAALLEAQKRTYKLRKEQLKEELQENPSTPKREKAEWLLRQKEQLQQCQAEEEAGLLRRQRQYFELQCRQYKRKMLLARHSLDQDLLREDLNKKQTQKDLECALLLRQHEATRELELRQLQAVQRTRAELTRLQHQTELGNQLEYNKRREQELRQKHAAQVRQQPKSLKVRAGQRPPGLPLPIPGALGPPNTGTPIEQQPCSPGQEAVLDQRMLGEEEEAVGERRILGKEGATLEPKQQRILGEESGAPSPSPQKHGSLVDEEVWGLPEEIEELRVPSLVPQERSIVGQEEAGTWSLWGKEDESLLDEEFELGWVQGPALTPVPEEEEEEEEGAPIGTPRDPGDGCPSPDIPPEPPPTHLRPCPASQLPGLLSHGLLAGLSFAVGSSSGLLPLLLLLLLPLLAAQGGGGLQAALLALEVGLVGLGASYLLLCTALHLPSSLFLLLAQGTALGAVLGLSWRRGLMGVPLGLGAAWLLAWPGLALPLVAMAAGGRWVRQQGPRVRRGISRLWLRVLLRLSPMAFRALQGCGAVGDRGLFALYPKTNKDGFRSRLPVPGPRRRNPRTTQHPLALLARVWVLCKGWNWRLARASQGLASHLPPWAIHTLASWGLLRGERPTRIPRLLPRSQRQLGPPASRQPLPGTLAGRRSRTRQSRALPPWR
The experiment in a line: Selectivity interaction (Ambit KINOMEscan and KiNATiv profiling in Jurkat cells) EUB0000090b TAOK2. The format is cell-based. The following applies: at 1 µM.

Assay [2] has as its target Death-associated protein kinase 3 (Homo sapiens) (UniProt O43293). The assay is described as follows: Selectivity interaction (KinomeScan (DiscoverX)) EUB0000229b DAPK3. The settings on record: at 10 µM.
Assay [3] has as its target Tyrosine-protein kinase Lck (Homo sapiens, UniProt P06239). The experiment in a line: Selectivity interaction (KinomeScan (DiscoverX)) EUB0000229b LCK. The settings on record: at 10 µM.
The target in assay [4] is T2, Homeodomain-interacting protein kinase 4 (Homo sapiens) (UniProt Q8NE63).
T2 sequence (whole entry): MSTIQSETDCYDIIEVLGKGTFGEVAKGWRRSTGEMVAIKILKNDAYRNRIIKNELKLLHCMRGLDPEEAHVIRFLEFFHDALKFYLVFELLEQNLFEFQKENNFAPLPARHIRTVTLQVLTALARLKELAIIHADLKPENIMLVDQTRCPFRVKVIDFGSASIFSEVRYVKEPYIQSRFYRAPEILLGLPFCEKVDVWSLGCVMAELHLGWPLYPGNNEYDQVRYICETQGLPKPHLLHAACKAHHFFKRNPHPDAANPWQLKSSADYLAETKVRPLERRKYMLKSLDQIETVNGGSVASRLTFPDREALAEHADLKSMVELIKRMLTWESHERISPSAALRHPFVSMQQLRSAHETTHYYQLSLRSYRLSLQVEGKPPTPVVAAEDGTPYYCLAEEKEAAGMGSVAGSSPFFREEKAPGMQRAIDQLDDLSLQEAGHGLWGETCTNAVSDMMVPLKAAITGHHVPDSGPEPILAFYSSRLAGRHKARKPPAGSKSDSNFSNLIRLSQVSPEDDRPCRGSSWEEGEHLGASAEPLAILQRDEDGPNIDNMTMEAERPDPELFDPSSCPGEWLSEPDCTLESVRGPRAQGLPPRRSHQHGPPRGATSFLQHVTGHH
The assay is described as follows: Selectivity interaction (KinomeScan (DiscoverX)) EUB0001619a HIPK4. The settings on record: at 1 µM.

For assay [5], the target named is T3, Tyrosine-protein kinase ITK/TSK (Homo sapiens) (UniProt Q08881).
T3 sequence (whole entry): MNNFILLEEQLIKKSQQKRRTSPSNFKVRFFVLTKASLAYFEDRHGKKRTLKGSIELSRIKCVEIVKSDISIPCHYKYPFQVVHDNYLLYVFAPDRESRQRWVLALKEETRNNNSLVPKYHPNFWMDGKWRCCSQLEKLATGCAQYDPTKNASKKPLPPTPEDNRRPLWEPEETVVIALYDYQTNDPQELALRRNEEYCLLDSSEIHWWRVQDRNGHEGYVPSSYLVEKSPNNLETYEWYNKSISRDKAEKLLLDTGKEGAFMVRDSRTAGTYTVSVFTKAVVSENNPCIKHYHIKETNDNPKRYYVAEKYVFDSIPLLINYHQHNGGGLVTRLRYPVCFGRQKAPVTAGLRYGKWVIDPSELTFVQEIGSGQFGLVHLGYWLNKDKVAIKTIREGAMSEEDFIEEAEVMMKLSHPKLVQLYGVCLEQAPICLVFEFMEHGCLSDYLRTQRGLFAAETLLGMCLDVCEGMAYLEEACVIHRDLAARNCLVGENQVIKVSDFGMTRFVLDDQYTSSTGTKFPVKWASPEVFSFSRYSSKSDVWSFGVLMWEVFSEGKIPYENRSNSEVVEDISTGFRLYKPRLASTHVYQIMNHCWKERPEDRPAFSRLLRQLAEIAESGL
The assay is described as follows: Selectivity interaction (KinomeScan (DiscoverX)) EUB0001619a ITK. The following applies: at 1 µM.

Assay [6] deals with Mitogen-activated protein kinase 14 (Homo sapiens, UniProt Q16539). The experiment in a line: Selectivity interaction (Kinase panel (literature)) EUB0001199aCl MAPK14. The settings on record: at 1 µM.
Mitogen-activated protein kinase 14, sequence (Q16539 whole entry): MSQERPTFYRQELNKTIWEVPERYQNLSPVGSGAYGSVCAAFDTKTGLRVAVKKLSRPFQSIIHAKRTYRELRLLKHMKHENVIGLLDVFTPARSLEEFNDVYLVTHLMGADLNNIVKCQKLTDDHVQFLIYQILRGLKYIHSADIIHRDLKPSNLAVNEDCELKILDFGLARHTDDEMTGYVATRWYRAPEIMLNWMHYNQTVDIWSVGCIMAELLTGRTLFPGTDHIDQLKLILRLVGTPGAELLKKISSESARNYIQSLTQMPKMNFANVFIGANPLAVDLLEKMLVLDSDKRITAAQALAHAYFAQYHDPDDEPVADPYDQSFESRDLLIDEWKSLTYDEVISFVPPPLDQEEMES
The target of assay [7] is Ephrin type-A receptor 7 (Homo sapiens) (UniProt Q15375). The settings on record: at 10 µM.
Ephrin type-A receptor 7 (Homo sapiens), sequence (Q15375 28-998 limits assumed): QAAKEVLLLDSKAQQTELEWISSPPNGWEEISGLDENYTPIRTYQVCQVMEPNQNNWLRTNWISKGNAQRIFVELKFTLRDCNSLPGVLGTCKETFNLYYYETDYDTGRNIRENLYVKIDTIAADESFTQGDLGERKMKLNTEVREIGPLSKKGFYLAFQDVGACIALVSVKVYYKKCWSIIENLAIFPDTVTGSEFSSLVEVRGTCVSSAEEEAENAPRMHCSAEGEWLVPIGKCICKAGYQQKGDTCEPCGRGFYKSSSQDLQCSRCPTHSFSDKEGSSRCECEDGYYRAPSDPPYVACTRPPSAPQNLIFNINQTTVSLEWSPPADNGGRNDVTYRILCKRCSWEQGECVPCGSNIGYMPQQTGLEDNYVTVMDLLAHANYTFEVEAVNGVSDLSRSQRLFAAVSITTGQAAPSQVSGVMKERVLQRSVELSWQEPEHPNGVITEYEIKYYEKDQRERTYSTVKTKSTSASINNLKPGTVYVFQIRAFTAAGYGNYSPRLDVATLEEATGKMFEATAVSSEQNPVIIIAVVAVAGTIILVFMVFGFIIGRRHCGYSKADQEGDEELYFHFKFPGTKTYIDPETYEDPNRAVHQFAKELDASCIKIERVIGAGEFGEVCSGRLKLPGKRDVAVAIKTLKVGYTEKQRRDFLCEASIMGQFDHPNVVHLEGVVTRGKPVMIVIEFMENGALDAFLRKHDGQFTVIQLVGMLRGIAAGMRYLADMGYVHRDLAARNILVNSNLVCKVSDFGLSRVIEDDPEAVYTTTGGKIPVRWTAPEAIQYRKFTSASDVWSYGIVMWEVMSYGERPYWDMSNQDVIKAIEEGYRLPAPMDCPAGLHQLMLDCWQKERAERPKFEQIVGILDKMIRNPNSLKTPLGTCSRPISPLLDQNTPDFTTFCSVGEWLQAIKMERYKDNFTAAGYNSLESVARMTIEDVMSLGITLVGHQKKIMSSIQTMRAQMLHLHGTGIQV

Tyrosine-protein kinase Lck, sequence (P06239 2-509 limits assumed): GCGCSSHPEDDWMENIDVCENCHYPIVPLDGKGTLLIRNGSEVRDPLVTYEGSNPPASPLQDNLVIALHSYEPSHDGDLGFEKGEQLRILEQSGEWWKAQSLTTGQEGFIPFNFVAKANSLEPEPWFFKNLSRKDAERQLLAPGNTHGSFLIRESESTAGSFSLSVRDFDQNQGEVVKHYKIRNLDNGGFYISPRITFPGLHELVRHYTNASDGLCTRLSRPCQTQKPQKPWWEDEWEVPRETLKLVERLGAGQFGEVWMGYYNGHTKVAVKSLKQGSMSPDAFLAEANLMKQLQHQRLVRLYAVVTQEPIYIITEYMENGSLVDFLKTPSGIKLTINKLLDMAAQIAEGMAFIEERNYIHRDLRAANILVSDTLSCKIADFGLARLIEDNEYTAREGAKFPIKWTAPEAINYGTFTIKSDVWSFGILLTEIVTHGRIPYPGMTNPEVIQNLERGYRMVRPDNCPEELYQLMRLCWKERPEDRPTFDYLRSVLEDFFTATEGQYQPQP
Death-associated protein kinase 3 (Homo sapiens), sequence (O43293 whole entry, looked up): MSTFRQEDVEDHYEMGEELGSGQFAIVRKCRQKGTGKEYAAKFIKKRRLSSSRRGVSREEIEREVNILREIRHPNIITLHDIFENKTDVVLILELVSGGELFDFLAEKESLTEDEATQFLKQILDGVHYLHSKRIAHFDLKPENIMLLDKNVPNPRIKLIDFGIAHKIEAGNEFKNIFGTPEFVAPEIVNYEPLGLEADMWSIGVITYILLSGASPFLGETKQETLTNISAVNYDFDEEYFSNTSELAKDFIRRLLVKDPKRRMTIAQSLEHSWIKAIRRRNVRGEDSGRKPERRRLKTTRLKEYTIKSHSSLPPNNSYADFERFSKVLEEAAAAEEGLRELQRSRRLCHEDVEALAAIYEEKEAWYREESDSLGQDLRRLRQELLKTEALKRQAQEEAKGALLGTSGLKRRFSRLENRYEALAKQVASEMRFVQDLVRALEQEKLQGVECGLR

As for `CN(C)C/C=C/C(=O)Nc1ccc(C(=O)N2CCCC(Nc3ncc(Cl)c(-c4c[nH]c5ccccc45)n3)C2)cc1` (configuration not stated), the % of control in assay [1] was found to be 50%.

Regarding `COc1cc(N(C)c2ccnc3ccc(C(F)(F)F)cc23)cc(OC)c1OC`, the results for the % binding in assay [2] and in assay [3] were 91% and 80%, respectively.

With `N#Cc1cccc(-c2c[nH]c3ncnc(N4CCOCC4)c23)c1`, the % of control in assay [4] and in assay [5] was 100% each time.

With `CN1Cc2nccc(-c3cn(C)nc3-c3ccc(F)cc3)c2C1=O`, in assay [6], the % of inhibition turned out to be 37%.

As for `CCN(CC)CCCCNc1ncc2cc(-c3cc(OC)cc(OC)c3)c(NC(=O)NC(C)(C)C)nc2n1`, in assay [7], the % of control was 100%.
